This assay has as its target T1, ASGPR (Homo sapiens, UniProt P07306).
T1 sequence (P07306 1-291): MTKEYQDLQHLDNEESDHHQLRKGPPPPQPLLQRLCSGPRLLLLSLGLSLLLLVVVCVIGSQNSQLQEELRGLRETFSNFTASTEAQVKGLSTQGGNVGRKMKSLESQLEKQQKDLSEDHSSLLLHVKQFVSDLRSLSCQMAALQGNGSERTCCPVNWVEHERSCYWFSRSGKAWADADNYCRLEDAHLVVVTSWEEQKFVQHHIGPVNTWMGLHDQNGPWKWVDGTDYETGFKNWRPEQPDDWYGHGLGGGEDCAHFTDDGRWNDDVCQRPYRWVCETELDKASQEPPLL
Nature of the assay: Binding of targeting ligand formats to ASGPR. The note with it: read-out: dissociation constants (Kd). The text has this: In this example, multiple targeting ligand formats with varying affinities to ASGPR and off target receptors were compared. […] The high degree of over modification refers to modifying each Fab with more than 1 SATA molecule leading to multiple points of PEG-Mal conjugation during the final phase of ctLNP formulation and conjugation.

What is called Kd is a measure of binding affinity in units of concentration.

Molecules are shown by their SMILES.

For `CC(=O)N[C@H]1C(O)O[C@H](CO)[C@H](O)[C@@H]1O` (stereo partly shown) [GalNAc], the equilibrium dissociation constant (Kd) is about 30.7 nM.

For the origin of these results see patent US20250281647A1, “STEALTH LIPID NANOPARTICLE COMPOSITIONS FOR CELL TARGETING” (Generation Bio Co., priority 2023, published 2025).
